From patent US20160263155A1, “T CELL RECEPTORS DIRECTED AGAINST THE PREFERENTIALLY EXPRESSED ANTIGEN OF MELANOMA AND USES THEREOF” (LEIDEN UNIVERSITY MEDICAL CENTER, priority 2015, published 2016)
“Also recorded” adds a separate entry of the source.

B1: IFN-gamma: interferon used to treat tumor cell lines for 48 h (protein, UniProt P01579 24-161, looked up)
Interferon gamma: QDPYVKEAENLKKYFNAGHSDVADNGTLFLGILKNWKEESDRKIMQSQIVSFYFKLFKNFKDDQSIQKSVETIKEDMNVKFFNSNKKKRDDFEKLTNYSVTDLNVQRKAIHELIQVMAELSPAAKTGKRKRSQMLFRG

Tests used:
cells = test: Amount of AP1903 needed in vitro for effective signaling of cells; type: cell-based
Experimental: The fixed dose of AP1903 for injection used, for example, may be 0.4 mg/kg intravenously infused over 2 hours. The amount of AP1903 needed in vitro for effective signaling of cells is about 10-100 nM (MW: 1412 Da). This equates to 14-140 μg/L or ˜0.014-0.14 mg/kg ([…]). The dosage may vary according to the application, and may, in certain examples, be more in the range of 0.1-10 nM, or in the range of 50-150 nM, 10-200 nM, 75-125 nM, 100-500 nM, 100-600 nM, 100-700 nM, 100-800 nM, or 100-900 nM. Doses up to 1 mg/kg were well-tolerated in the Phase I study of AP1903 described above.

[1] = test system: inducible caspase-9 expressing T cells; test: CASPALLO and DOTTI trials: AP1903 given to subjects treated with T cells containing the iCaspase-9 suicide switch; type: in vivo, human
Experimental: The DOTTI trial is a follow-up study to the CASPALLO trial. Three subjects subsequently developed Grade I & II acute GVHD and were treated with a single dose of the dimerizing drug AP1903. Four subjects are alive at a median of 476 days after transplant (range 278-674 days), and who had received AP1903.

[2] = test system: CD3+ΔCD19+ cells (iCasp9+ T cells); test: Phase I clinical trial of allodepleted T cells transduced with inducible caspase-9 suicide gene after haploidentical stem cell transplantation; type: in vivo, human
From the text: This example presents results of a phase 1 clinical trial using an alternative suicide gene strategy. Briefly, donor peripheral blood mononuclear cells were co-cultured with recipient irradiated EBV-transformed lymphoblastoid cells (40:1) for 72 hrs, allodepleted with a CD25 immunotoxin and then transduced with a retroviral supernatant carrying the iCasp9 suicide gene and a selection marker (ΔCD19); ΔCD19 allowed enrichment to >90% purity via immunomagnetic selection.
Patients developing grade 1 GvHD were treated with 0.4 mg/kg AP1903 as a 2-hour infusion. Protocols for administration of AP1903 to patients grade 1 GvHD were established as follows. Patients developing GvHD after infusion of allodepleted T cells are biopsied to confirm the diagnosis and receive 0.4 mg/kg of AP1903 as a 2 h infusion. […] Patients developing grades 2-4 GvHD were administered standard systemic immunosuppressive therapy per institutional guidelines, in addition to the AP1903 dimerizer drug.
Instructions for preparation and infusion: AP1903 for injection is obtained as a concentrated solution of 2.33 ml in a 3 ml vial, at a concentration of 5 mg/ml, (i.e., […] per vial). Prior to administration, the calculated dose was diluted to 100 mL in 0.9% normal saline for infusion. AP1903 for injection (0.4 mg/kg) in a volume of 100 ml was administered via IV infusion over 2 hours, using a non-DEHP, non-ethylene oxide sterilized infusion set and infusion pump.
Three patients received iCasp9^+ T cells after haplo-CD34^+ stem cell transplantation (SCT), at dose levels between about 1×10^6 to about 3×10^6 cells/kg.
Infused T cells were detected in vivo by flow cytometry (CD3^+ΔCD19^+) or qPCR as early as day 7 after infusion, with a maximum fold expansion of 170±5 (day 29±9 after infusion).

Cell A T cells (iCasp9) = test: In vivo Cell A response to rimiducid in NSG mice (flow cytometry of spleens); set-up: species or system NSG mouse; details: 24 hours after rimiducid 5 mg/kg i.p.; 42±1.1% in untreated mice; p<0.0001
Experimental: 16 mice received an i.v. injection of 1×10^7 Cell A T cells on Day 0 as outlined above. Forty eight hours later, eight of the mice were injected i.p. with rimiducid at 5 mg/kg to evaluate activation of iCasp9 and apoptosis of the Cell A T cells; the other eight mice were left untreated. […] Thus, the iCasp9 encoded within Cell A represents a functioning safety switch that can be triggered in vivo to eliminate Cell A cells.

[3] = test system: Cell A T cells (iCasp9 suicide gene); test: Overnight culture of spleen and bone marrow cells from Cell A-treated animals with or without rimiducid; type: cell-based, NSG mouse; details: 10 nM rimiducid overnight; p<0.05
Experimental: A fraction of spleen and bone marrow cells were isolated from the Cell A-treated animals as analyzed above, and were cultured overnight with or without 10 nM rimiducid in order to determine the sensitivity of the suicide switch.

[4] = test system: T cells transduced with the PRAME-TCR in combination with the iCasp9; test: PRAME reactivity of T cells transduced with PRAME-TCR in combination with iCasp9 after AP1903 treatment; type: cell-based, human; details: 100 nM AP1903 for 18 h (overnight)
Experimental: The TCRAV and TCRBV gene usage of clone AAV54 (also called clone 54 or HSS1) was determined using reverse transcriptase (RT)-PCR and sequencing^5. […]
FIG. 12, Different retroviral vectors encoding for the PRAME-TCR were transduced into virus specific T cells and the reactivity is measured against target cells loaded with different concentrations of the PRAME peptide and against two melanoma cell-lines: FM6 positive for HLA-A2 and PRAME, and M13046/2 positive for HLA-A2 but negative for PRAME. […]
FIG. 15 Different retroviral vectors encoding for the PRAME-TCR were transduced into virus specific T cells and the reactivity was measured against target cells (T2 cells) loaded with PRAME peptide and two PRAME positive and HLA-A2 positive melanoma cell-lines: 518.A2 and FM6, and one PRAME negative but HLA-A2 positive melanoma cell line M13046/2. […]

[5] = cited from earlier work
Ewing sarcoma cell lines = test: HLA-class I expression of Ewing sarcoma cell lines after interferon treatment; type: cell-based, human; details: 48 h, 300 IU/ml IFN-alpha or 100 IU/ml IFN-gamma
[6] = test system: neuroblastoma (NB) cell lines; test: HLA-class I expression of neuroblastoma cell lines after interferon treatment; type: cell-based, human; details: 48 h, 300 IU/ml IFN-α or 100 IU/ml IFN-γ

Row | Molecule | amount of AP1903 needed for effective signaling, converted to dose (cells) | amount of AP1903 needed in vitro for effective signaling of cells (cells) | amount of AP1903 needed in vitro for effective signaling of cells, converted (cells; MW 1412 Da) | elimination of inducible caspase-9 expressing T cells ([1]; 30 minutes from the end of a 2 hour intravenous infusion, CASPALLO trial) | adverse events associated with AP1903 ([1]; CASPALLO and DOTTI trials) | acute GVHD after administration of AP1903 ([1]; four subjects, CASPALLO trial) | resolution of skin and liver aGvHD ([2]; after AP1903 administration) | ablation of CD3+ΔCD19+ cells ([2]; within 30 minutes of infusion, two patients with grade I/II aGvHD, 0.4 mg/kg as 2-hour infusion) | further reduction of CD3+ΔCD19+ cells ([2]; within 24 hours) | human T cells in spleen that were Vβ1+ (Cell A T cells (iCasp9)) | fraction of Vβ1+ T cells recovered from spleen and bone marrow [3] | PRAME specific reactivity of T cells transduced with PRAME-TCR and iCasp9 after AP1903 [4] | well-tolerated doses ([5]; Phase I study) | adverse event considered possibly related to AP1903 ([5]; human, in vivo, 1 mg/kg) | AP1903 plasma levels versus dose ([5]; human, in vivo) | incidence of adverse events ([5]; human, in vivo) | serious adverse events ([5]; human, in vivo) | severity of adverse events ([5]; human, in vivo) | HLA-class I expression on the cell surface (Ewing sarcoma cell lines) | HLA-class I expression on the cell surface [6]
1 | CC[C@H](C(=O)N1CCCC[C@H]1C(=O)O[C@H](CCc1ccc(OC)c(OC)c1)c1cccc(OCC(=O)NCCNC(=O)COc2cccc([C@@H](CCc3ccc(OC)c(OC)c3)OC(=O)[C@@H]3CCCCN3C(=O)[C@@H](CC)c3cc(OC)c(OC)c(OC)c3)c2)c1)c1cc(OC)c(OC)c(OC)c1 (relative stereo) [AP1903, 2-Piperidinecarboxylic acid, 1-[(2S)-1-oxo-2-(3,4,5-trimethoxyphenyl)butyl]-, 1,2-ethanediylbis [imino(2-oxo-2,1-ethanediyl)oxy-3,1-phenylene[(1R)-3-(3,4-dimethoxyphenyl)propylidene]] ester, [2S-[1(R*),2R*[S*[S*[1(R*),2R*]]]]]-(9CI)] | 0.014 to 0.14 mg/kg | 10 to 100 nM | 14 to 140 µg/L | ≥ 90% | No adverse events; also recorded: no immediate or delayed adverse events | rapidly abrogated | ≤ 24 h | > 90% | further log reduction | 7.3±0.2% | significantly reduced | abrogated | up to 1 mg/kg | vasodilatation | directly proportional to dose | very low | No serious adverse events | mild | – | –
2 | B1 | – | – | – | – | – | – | – | – | – | – | – | – | – | – | – | – | – | – | increased | increased
